This note sets out measurements from ChEMBL document CHEMBL1201862, “PubChem BioAssay data set” (2004).

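Five compound concentrations were applied to cells in 96-well plates for 48 hours; endpoints were derived by simple linear interpolation of the resulting dose-response curve. GI50 = concentration required for 50% inhibition of growth.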 Activity calls are given as the source filed them. No stated cut-off is given here; in the data, active = GI50 up to about 1.1 µM and inactive = higher. Where only a bound is given, the exact number is not on record here.

Among the test systems are XF498; DLD-1; KM-20L2; HOP-18; M19-MEL; SNB-78; 786-0; RXF 631; LXFL 529.
Common to all, as to test: NCI-60 cell line screen, 48 h

On to `COc1cc(/C=C/C(=O)O)ccc1C(=O)O/C=C/c1ccccc1`, for which the GI50 with XF498 is > 100 µM (inactive); in the test with DLD-1, > 100 µM (inactive); with KM-20L2, > 100 µM (inactive); in the test with HOP-18, > 100 µM (inactive); in the test with M19-MEL, > 81.7 µM (inactive); in the test on SNB-78, > 100 µM (inactive).

In the case of `COc1ccc(C(O)(c2ccccc2)c2nccc3ccccc23)cc1` (stereo unspecified), in the test on 786-0, the GI50 was 7.62 µM (inactive).

With `Cc1nc2ccc(NC3OCC(O)C(O)C3O)cc2c(=O)n1-c1ccccc1` (stereo unspecified), the GI50 with 786-0 was > 100 µM (inactive).

As for `CCNC(=O)N(CC)CN(CC)C(=O)NCC`, the GI50 in the test with XF498, with RXF 631, in the test on DLD-1, in the test with KM-20L2, in the test with M19-MEL and in the test on SNB-78 was > 100 µM (inactive) in each case. In addition, the GI50 with LXFL 529 was > 100 µM (inactive).

Regarding `O=C1C2=C(C3=NCCc4c[nH]c1c43)C1(C=C(Br)C(O)C(Br)=C1)CCN2` (stereo unspecified), the GI50 was 7.67 µM (inactive) in the test on XF498; 1.67 µM (inactive) in the test on DLD-1; 0.317 µM (active) in the test on KM-20L2; 10.7 µM (inactive) with HOP-18; 0.38 µM (active) in the test with M19-MEL; 2.79 µM (inactive) in the test on SNB-78.

In the case of `CCCNC1=NC(C)=CSC(Nc2ccccc2)=C1C#N`, the GI50 in the test on 786-0 is > 100 µM (inactive).

Turning to `COC(=O)NCCc1n[nH]c2c1C(=O)C=C(N1CCOCC1)C2=O`, the GI50 in the test on 786-0 is > 100 µM (inactive).

In the case of `COc1ccc2c(c1)CCCc1cn[nH]c1-2`, the GI50 in the test with XF498, with DLD-1, with KM-20L2, with HOP-18, with M19-MEL and in the test with SNB-78 was > 100 µM (inactive) each time.

As to `ICC1CCCO1` (stereo unspecified), the GI50 in the test on XF498, in the test with RXF 631, in the test on DLD-1, in the test on KM-20L2, in the test with HOP-18 and in the test with SNB-78 was > 100 µM (inactive) in each case. Further, the GI50 with LXFL 529 was > 100 µM (inactive).
